From patent publication US20050228046A1, “Alkylamine as an antimicrobial agent in ophthalmic compositions” (ADVANCED MEDICAL OPTICS, INC., priority 2004, published 2005)
One block for each molecule: values may come before it.

Key:
[1] = test system: Candida albicans, ATCC 10231; test: Microbiology challenge test, log drop; assay type: cell-based
Description: (§1) The following is the procedure by which various antimicrobial agents and solutions are tested for their ability to reduce microbial loads over short periods of time, typically 24 hours and less. The procedure is a basic microbiology challenge test, which involves the inoculation of test product aliquots with a known number of viable cells of several test organisms, and assay for the survivors at various time intervals. The results are used to calculate log drops at soak times and construct kill-curves (graphs of survivors versus time) if desired.
(§2) Candida albicans, ATCC 10231, is one of five organisms specified per FDA and ISO/CLI tests for the testing of contact lens disinfectants (FDA Premarket Notification (510k) Guidance Document for Contact Lens Care Products, Appendix B, Apr. 1, 1997 and ISO/FDIS 14729: Ophthalmic optics-Contact lens care products-Microbiological requirements and test methods for products and regimens for hygienic management of contact lenses, January 2001). Contact lens disinfectants are also known as contact lens multi-purpose solutions when they are used for rinsing, cleaning, disinfection, storage and rewetting contact lenses. The five FDA/ISO specified test organisms are listed below: • Serratia marcescens, ATCC 13880 • Staphylococcus aureus, ATCC 6538 • Pseudomonas aeruginosa, ATCC 9027 • Candida albicans, ATCC 10231 • Fusarium solani, ATCC 36031
(§3) The specific test procedure for testing antimicrobial activity against the five FDA/ISO specified test organisms is as follows (C. albicans is provided as a specific example): Test samples are sterile-filtered through a 0.22 micron sterile filter into sterile plastic high density polyethylene bottles or plastic flasks. A 10-mL aliquot of test sample is aseptically transferred into a sterile polystyrene plastic test tube. Sterile saline (0.90 w/v % NaCl) with 0.05 w/v % Polysorbate 80 (SS+TWEEN) is transferred into a separate control tube. All samples and control are stored at 20-25° C. throughout the duration of the test.
(§4) Test cultures of Candida albicans, ATCC 10231 are prepared in the conventional manner. Candida albicans cultures are grown on agar slants from primary frozen, lyophilized or “Culti-loop®” cultures. Three mL of sterile 0.9% saline is used to gently dislodge culture growth from the agar surface. The resulting harvest is transferred to an appropriate screw cap test tube containing glass beads and vortexed for approximately one minute. The vortexed harvest is diluted as needed with sterile 0.9% saline to prepare the culture inoculum with a concentration of 1×10e8 CFU/mL. Fifty microliters of culture inoculum is added to 10.0 mL of each test sample and control, so that the final inoculum level is in the range of 1×10e5 to 1×10e6 CFU(colony forming units) per mL of Candida albicans, ATCC 10231. Each sample and control tube is vortexed briefly to disperse the inoculum. Contact time intervals for testing activity against Candida are typically 4 or 6 hours, to conform to the intended product label instructions for contact lens soak time.
(§5) Aerobic Plate Count Methods are performed in order to quantitate test samples for their levels of survivors. At appropriate assay times, 0.5 mL well-vortexed aliquots are removed from sample tubes and added to glass test tubes containing 4.5 mL Letheen Neutralizing Broth media (Berton, Dickinson and Company, Sparks, Md.). After a previously determined, validated neutralizing time period, these samples are diluted 10-fold through serial dilutions using glass test tubes containing 4.5 mL Letheen Neutralizing Broth media. Aliquots of 0.1 mL are removed from each dilution tube and spread-plate applied to agar plates containing Sabouraud Dextrose Agar (SAB)(Berton, Dickinson and Company, Sparks, Md.). 10^1 to 10^4 CFU/mL survivor levels are quantitated. […]

[2] = test system: Fusarium solani, ATCC 36031; test: Microbiology challenge test, log drop; assay type: cell-based
Description: as §1, §2, §3, §4, §5

[3] = test system: Pseudomonas aeruginosa, ATCC 9027; test: Microbiology challenge test, log drop; assay type: cell-based
Description: as §1, §2, §3, §4, §5

[4] = test system: Serratia marcescens, ATCC 13880; test: Microbiology challenge test, log drop; assay type: cell-based
Description: as §1, §2, §3, §4, §5

[5] = test system: Staphylococcus aureus, ATCC 6538; test: Microbiology challenge test, log drop; assay type: cell-based
Description: as §1, §2, §3, §4, §5

[6] = Contact lens uptake: content left in solution after shaking with lenses; assay type: physicochemical; settings: Myristylamine with TPGS 20 fold; for remaining content left in solution, Acuvue / remaining content left in solution, Purevision: 15 ml solution, closed system shaken 6 days at room temperature; for remaining content left in solution, Acuvue: 2 Acuvue lenses; for remaining content left in solution, Purevision: 2 Purevision lenses; for remaining content left in solution, Without Lens: 15 ml system without lenses, shaken 6 days at room temperature
Description: The results in Table 9A show the remaining quaternary ammonium and tertiary amine content left in solution after a 15 ml-solution-2 lenses closed system has been shaken for 6 days at room temperature. […] The control which was run for this experiment, which includes the remaining ingredients in the solutions referenced in Table 9A are listed in Table 9B. As one of ordinary skill in the art would realize, the less quaternary ammonium or tertiary amine content remaining in solution after the shaking period, the higher the absorption by the lenses.

[7] = test system: five FDA/ISO specified test organisms; test: Antimicrobial activity against the five-microbial panel, FDA/ISO disinfection criteria; assay type: cell-based; settings: result in words
Description: The following is the procedure by which various antimicrobial agents and solutions are tested for their ability to reduce microbial loads over short periods of time, typically 24 hours and less. The procedure is a basic microbiology challenge test, which involves the inoculation of test product aliquots with a known number of viable cells of several test organisms, and assay for the survivors at various time intervals. The results are used to calculate log drops at soak times and construct kill-curves (graphs of survivors versus time) if desired. Candida albicans, ATCC 10231, is one of five organisms specified per FDA and ISO/CLI tests for the testing of contact lens disinfectants (FDA Premarket Notification (510k) Guidance Document for Contact Lens Care Products, Appendix B, Apr. 1, 1997 and ISO/FDIS 14729: Ophthalmic optics-Contact lens care products-Microbiological requirements and test methods for products and regimens for hygienic management of contact lenses, January 2001). Contact lens disinfectants are also known as contact lens multi-purpose solutions when they are used for rinsing, cleaning, disinfection, storage and rewetting contact lenses. The five FDA/ISO specified test organisms are listed below: • Serratia marcescens, ATCC 13880 • Staphylococcus aureus, ATCC 6538 • Pseudomonas aeruginosa, ATCC 9027 • Candida albicans, ATCC 10231 • Fusarium solani, ATCC 36031 Candida albicans is often the most resistant of the five organisms to commonly used cationic antimicrobial agents in contact lens multi-purpose solutions. Thus, achievement of adequate antimicrobial activity against Candida is often the most difficult task to pass a particular disinfection efficacy standard. FDA and ISO guidelines specify two disinfection efficacy standards, indicated in the table below: Stand Alone Disinfectant (Primary) Criteria: [table] The specific test procedure for testing antimicrobial activity against the five FDA/ISO specified test organisms is as follows (C. albicans is provided as a specific example): Test samples are sterile-filtered through a 0.22 micron sterile filter into sterile plastic high density polyethylene bottles or plastic flasks. A 10-mL aliquot of test sample is aseptically transferred into a sterile polystyrene plastic test tube. Sterile saline (0.90 w/v % NaCl) with 0.05 w/v % Polysorbate 80 (SS+TWEEN) is transferred into a separate control tube. All samples and control are stored at 20-25° C. throughout the duration of the test.

[8] = Table 8B: Cetylamine 0.0001 % w/w with PHMB 0.00002, Pluronic F87 0.05, pH 7.7
[9] = Table 8B: Cetylamine 0.0001 % w/w, PHMB 0.00, Pluronic F87 0.05, pH 7.7
[10] = Table 8B: Cetylamine 0.000125 % w/w, PHMB 0.00, Pluronic F87 0.05, pH 7.7
[11] = Table 8B: Cetylamine 0.0003 % w/w, PHMB 0.00, Pluronic F87 0.05, pH 7.7
[12] = Cetylpyridinium Chloride 0.001 w/v %, TPGS 0, Tetronic 1307 0.05
[13] = Cetylpyridinium Chloride 0.001 w/v %, TPGS 0.025, Tetronic 1307 0.05
[14] = Table 2B: Dodecylamine 0.0003 % w/w, Tetronic 1307 0.05, pH 7.8
[15] = Table 2B: Dodecylamine 0.0005 % w/w, Tetronic 1307 0.05, pH 7.8

Compound: CCCCCCCCCCCCCCCCN [Cetylamine]
Log Drop [1, 8]: 1.51
Log Drop [1, 9]: 2.89
Log Drop [1, 10]: 1.97
Log Drop [1, 11]: 2.89
Log Drop [2, 8]: 1.14
Log Drop [2, 9]: 1.3
Log Drop [2, 10]: 2.76
Log Drop [2, 11]: 1.48
Log Drop [3, 8]: 4.43
Log Drop [3, 9]: 4.49
Log Drop [3, 10]: 3.95
Log Drop [3, 11]: 4.49
Log Drop [4, 8]: 4.18
Log Drop [4, 9]: 2.35
Log Drop [4, 10]: 3.76
Log Drop [4, 11]: 3.61
Log Drop [5, 8]: 4.81
Log Drop [5, 9]: 4.18
Log Drop [5, 10]: 4.81
Log Drop [5, 11]: 4.79

Compound: CCCCCCCCCCCCCCCC[n+]1ccccc1 [Cetylpyridinium Chloride, reference compound]
Log Drop [1, 12]: 4.41
Log Drop [1, 13]: 0.12
Log Drop [2, 12]: >4.08
Log Drop [2, 13]: 1.06
remaining content left in solution, Acuvue [6]: 3.3 ppm
remaining content left in solution, Purevision [6]: 1.3 ppm
remaining content left in solution, Without Lens [6]: 42.7 ppm

remaining content left in solution, Acuvue [6]: 35.0 ppm
remaining content left in solution, Purevision [6]: 14.1 ppm
remaining content left in solution, Without Lens [6]: 44.4 ppm
Compound: CCCCCCCCCCCCN [Dodecylamine, reference compound]
Log Drop [1, 14]: 0.91
Log Drop [1, 15]: 1.77
Log Drop [2, 14]: 0.09
Log Drop [2, 15]: 0.16
Log Drop [3, 14]: 1.4
Log Drop [3, 15]: 1.36
Log Drop [4, 14]: 0.46
Log Drop [4, 15]: 0.46
Log Drop [5, 14]: 0.34
Log Drop [5, 15]: 0.12
antimicrobial activity [7]: very weak antimicrobial activity
antimicrobial activity ([7]; listed as dodecylamine): not qualified as a disinfectant for contact lens care

Compound: CCCCCCCCCCCCCC(=O)NCCCN(C)C [Myristylamidopropyl-dimethylamine]
remaining content left in solution, Acuvue [6]: 18.2 ppm
remaining content left in solution, Purevision [6]: 4.7 ppm
remaining content left in solution, Without Lens [6]: 43.5 ppm
